Laboratory results: PubChem BioAssay AID248 (DTP/NCI, 2004)
Several values for one entry are separate records, joined by “and”; a condition that tells them apart may be missing. Identical values can stand only once. Inconclusive results and toxic doses are left out. Rule as the data show it: active = T/C of 150% or more; inactive = T/C below 125%.

Test system: L1210 leukemia ip in BDF1 mice, survival T/C
Experiment: NCI In Vivo Anticancer Drug Screen. Data for tumor model L1210 Leukemia (intraperitoneal) in B6D2F1 (BDF1) mice
Details: endpoint: mean survival time, higher = longer survival
Summary of the method: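 Tumor cells were implanted, animals were treated, and survival was followed. The result divides the treated measurement by the vehicle-control measurement.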

[1] = dose: 25.0 mg/kg/injection, schedule: Q01DX009 (ip), vehicle: saline
[2] = dose: 50.0 mg/kg/injection, schedule: Q01DX009 (ip), vehicle: saline
[3] = dose: 100.0 mg/kg/injection, schedule: Q01DX009 (ip), vehicle: Klucel (hydroxypropylcellulose) (HPC)
[4] = dose: 200.0 mg/kg/injection, schedule: Q01DX009 (ip), vehicle: Klucel (hydroxypropylcellulose) (HPC)
[5] = dose: 400.0 mg/kg/injection, schedule: Q01DX009 (ip), vehicle: Klucel (hydroxypropylcellulose) (HPC)
[6] = dose: 100.0 mg/kg/injection, schedule: Q01DX001 (ip), vehicle: saline
[7] = dose: 100.0 mg/kg/injection, schedule: Q01DX001 (ip), vehicle: carboxymethylcellulose (CMC)
[8] = dose: 200.0 mg/kg/injection, schedule: Q01DX001 (ip), vehicle: carboxymethylcellulose (CMC)
[9] = dose: 400.0 mg/kg/injection, schedule: Q01DX001 (ip), vehicle: carboxymethylcellulose (CMC)
[10] = dose: 400.0 mg/kg/injection, schedule: Q01DX001 (ip), vehicle: saline
[11] = dose: 100.0 mg/kg/injection, schedule: Q04DX003 (ip), vehicle: Klucel (hydroxypropylcellulose) (HPC)
[12] = dose: 200.0 mg/kg/injection, schedule: Q04DX003 (ip), vehicle: Klucel (hydroxypropylcellulose) (HPC)
[13] = dose: 400.0 mg/kg/injection, schedule: Q04DX003 (ip), vehicle: Klucel (hydroxypropylcellulose) (HPC)
[14] = dose: 100.0 mg/kg/injection, schedule: Q04DX002 (ip), vehicle: Klucel (hydroxypropylcellulose) (HPC)
[15] = dose: 200.0 mg/kg/injection, schedule: Q04DX002 (ip), vehicle: Klucel (hydroxypropylcellulose) (HPC)
[16] = dose: 400.0 mg/kg/injection, schedule: Q04DX002 (ip), vehicle: Klucel (hydroxypropylcellulose) (HPC)
[17] = dose: 200.0 mg/kg/injection, schedule: Q01DX001 (ip), vehicle: saline
[18] = dose: 50.0 mg/kg/injection, schedule: Q01DX001 (ip), vehicle: carboxymethylcellulose (CMC)
[19] = dose: 100.0 mg/kg/injection, schedule: Q04DX002 (ip), vehicle: saline with Tween-80
[20] = dose: 200.0 mg/kg/injection, schedule: Q04DX002 (ip), vehicle: saline with Tween-80
[21] = dose: 400.0 mg/kg/injection, schedule: Q04DX002 (ip), vehicle: saline with Tween-80

Measured: T/C

CCOC(=O)N1c2ccccc2C=CC1OCC (stereo unspecified)
inactive: dose: 12.0 mg/kg/injection, schedule: Q01DX009 (ip), vehicle: saline 93 % of control | dose: 12.0 mg/kg/injection, schedule: Q04DX003 (ip), vehicle: saline 119 % of control | [1] 89 % of control | dose: 25.0 mg/kg/injection, schedule: Q04DX003 (ip), vehicle: saline 113 % of control | [2] 89 % of control | dose: 50.0 mg/kg/injection, schedule: Q04DX003 (ip), vehicle: saline 94 % of control

NC(=S)NN=C1CCCCCCC1
inactive: dose: 8.4 mg/kg/injection, schedule: Q01DX Z (ip), vehicle: methylcellulose (MC) 98 % of control | dose: 23.0 mg/kg/injection, schedule: Q01DX Z (ip), vehicle: methylcellulose (MC) 101 % of control | dose: 39.0 mg/kg/injection, schedule: Q01DX Z (ip), vehicle: methylcellulose (MC) 111 % of control

O=C(Nc1cccc(C(F)(F)F)c1)Nc1ccc([N+](=O)[O-])cc1Cl
inactive: dose: 100.0 mg/kg/injection, schedule: Q01DX009 (ip), vehicle: gum acacia 88 % of control | dose: 200.0 mg/kg/injection, schedule: Q01DX009 (ip), vehicle: gum acacia 97 % of control | dose: 400.0 mg/kg/injection, schedule: Q01DX009 (ip), vehicle: gum acacia 96 % of control

COc1ccc(/C=N/NC(=O)/C=C/c2ccccc2)c(OC)c1
inactive: [3] 97 % of control | [4] 98 % of control | [5] 92 % of control

CC1=NC(C(=O)Cl)NN1c1ccccc1 (stereo unspecified)
inactive: [1] 101 % of control | dose: 25.0 mg/kg/injection, schedule: Q04DX003 (ip), vehicle: saline with Tween-80 96 % of control | [2] 97 % of control | dose: 50.0 mg/kg/injection, schedule: Q04DX003 (ip), vehicle: saline with Tween-80 101 % of control | [6] 93 % of control | dose: 100.0 mg/kg/injection, schedule: Q01DX009 (ip), vehicle: saline 95 % of control | dose: 100.0 mg/kg/injection, schedule: Q04DX003 (ip), vehicle: saline with Tween-80 98 % of control

NC(=S)N/N=C/c1c(O)ccc2ccccc12
inactive: [7] 96 % of control | [8] 94 % of control | [9] 94 % of control

O=[N+]([O-])c1ccc(/C=N/Nc2c3ccccc3nc3ccccc23)cc1
inactive: [10] 94 % of control

CCn1cc(C(=O)O)c(=O)c2ccc(-c3ccncc3)cc21
inactive: [3] 98 % of control | [11] 91 % of control | [4] 101 % of control | [12] 91 % of control | [5] 102 % of control | [13] 89 % of control

CCCCn1c(=S)sc2ccccc21
inactive: [14] 94 % of control | [15] 109 % of control | [16] 88 % of control

O=C1c2ccccc2-c2ncccc21
inactive: [3] 103 % of control | [11] 98 % of control | [4] 102 % of control | [12] 109 % of control | [5] 92 % of control

NC(N)=NN=C1CCC(C2CCCCC2)CC1 (stereo unspecified)
inactive: dose: 15.0 mg/kg/injection, schedule: Q01DX Z (ip), vehicle: methylcellulose (MC) 95 % of control | dose: 30.0 mg/kg/injection, schedule: Q01DX Z (ip), vehicle: methylcellulose (MC) 97 % of control | dose: 30.0 mg/kg/injection, schedule: Q01DX Z (oral), vehicle: methylcellulose (MC) 92 % of control | dose: 60.0 mg/kg/injection, schedule: Q01DX Z (ip), vehicle: methylcellulose (MC) 92 % of control | dose: 60.0 mg/kg/injection, schedule: Q01DX Z (oral), vehicle: methylcellulose (MC) 92 % of control | dose: 120.0 mg/kg/injection, schedule: Q01DX Z (ip), vehicle: methylcellulose (MC) 92 % of control | dose: 120.0 mg/kg/injection, schedule: Q01DX Z (oral), vehicle: methylcellulose (MC) 93 % of control

CCCCN(Cc1ccccc1)C(=S)Nc1ccccc1
inactive: [3] 106 % of control | [4] 108 % of control | [5] 108 % of control

O=C(c1ccccc1)c1nc2ccccc2[nH]1
inactive: [14] 108 % of control | [15] 101 % of control | [16] 104 % of control

COc1ccc(-c2cc(-c3ccc(Cl)cc3)no2)cc1
inactive: [11] 106 % of control | [12] 92 % of control | [13] 95 % of control

CCOC(=O)c1ccc(NC(=O)/C=C/c2ccccc2)cc1
inactive: [3] 97 % of control | [4] 95 % of control | [5] 97 % of control

CCOC(=O)Nc1cc(Cl)c([N+](=O)[O-])c(NC(=O)OCC)n1
inactive: dose: 100.0 mg/kg/injection, schedule: Q01DX001 (ip), vehicle: other 102 % of control | dose: 200.0 mg/kg/injection, schedule: Q01DX001 (ip), vehicle: other 91 % of control

O=C(O)c1c(Cl)c(Cl)c(Cl)c(Cl)c1C(=O)Nc1cccc(C(F)(F)F)c1
inactive: [3] 100 % of control | [11] 94 % of control | [4] 97 % of control | [12] 100 % of control | [13] 105 % of control

COc1ccc(CCCCC(=O)O)cc1O
inactive: [6] 103 % of control | [17] 103 % of control | [10] 107 % of control

C=CCCC(=O)O
inactive: dose: 50.0 mg/kg/injection, schedule: Q01DX001 (ip), vehicle: saline with Tween-80 96 % of control | dose: 100.0 mg/kg/injection, schedule: Q01DX001 (ip), vehicle: saline with Tween-80 100 % of control | dose: 200.0 mg/kg/injection, schedule: Q01DX001 (ip), vehicle: saline with Tween-80 91 % of control

CN(C)Cc1cc2ccccc2cc1C(O)(c1ccccc1)c1ccccc1
inactive: [18] 102 % of control | [7] 88 % of control | [8] 94 % of control | [9] 96 % of control

CC1=NN(c2ccccc2)C(=O)C1N=Nc1ccc(S(=O)(=O)Nc2nnc(C)s2)cc1 (stereo unspecified)
inactive: [7] 98 % of control | [8] 106 % of control | [9] 93 % of control

O=[N+]([O-])c1ccc2c(c1)OCCOCCOCCOCCO2
inactive: [14] 95 % of control | [19] 93 % of control | [15] 103 % of control | [20] 104 % of control | [21] 87 % of control

CN(C)NC(=O)CC(NCc1ccccc1)C(=O)O (stereo unspecified)
inactive: dose: 100.0 mg/kg/injection, schedule: Q01DX009 (ip), vehicle: saline with Tween-80 94 % of control | dose: 200.0 mg/kg/injection, schedule: Q01DX009 (ip), vehicle: saline with Tween-80 95 % of control | dose: 400.0 mg/kg/injection, schedule: Q01DX009 (ip), vehicle: saline with Tween-80 95 % of control

CC(C)(CCC(=O)O)CCC(=O)O
inactive: [18] 100 % of control | [7] 111 % of control | [8] 100 % of control | [9] 94 % of control

CC(C)C(=O)C(C)(C)C
inactive: [6] 102 % of control | [17] 98 % of control | [10] 107 % of control

Cc1c(Cl)cccc1NC(=O)C(c1ccccc1)c1ccccc1
inactive: [3] 89 % of control | [11] 101 % of control | [4] 94 % of control | [12] 86 % of control | [5] 93 % of control | [13] 91 % of control

Cc1ccc(S(=O)(=O)Nc2ncc([N+](=O)[O-])s2)cc1
inactive: dose: 12.5 mg/kg/injection, schedule: Q01DX009 (ip), vehicle: saline with Tween-80 101 % of control | dose: 25.0 mg/kg/injection, schedule: Q01DX009 (ip), vehicle: saline with Tween-80 101 % of control | dose: 50.0 mg/kg/injection, schedule: Q01DX009 (ip), vehicle: saline with Tween-80 98 % of control and 90 % of control

CSc1nc(O)cc(=O)n1C
inactive: dose: 100.0 mg/kg/injection, schedule: Q01DX Z (ip), vehicle: methylcellulose (MC) 95 % of control | dose: 200.0 mg/kg/injection, schedule: Q01DX Z (ip), vehicle: methylcellulose (MC) 101 % of control

CC(C)CC/C=C/c1ccccc1
inactive: [19] 92 % of control | [20] 104 % of control | [21] 92 % of control

O=c1[nH]c(-c2ccccc2)ncc1OCc1ccccc1
inactive: [18] 91 % of control | [7] 100 % of control | [8] 96 % of control | [9] 89 % of control

Cc1[nH]c2cc(O)c(O)c(C)c2c1C
inactive: [6] 96 % of control

CC(C)c1cc(C(C)C)c(S(=O)(=O)C2CC2c2ccccc2)c(C(C)C)c1 (stereo unspecified)
inactive: [6] 112 % of control | [17] 93 % of control | [10] 91 % of control
